Measured values: publication PMC11876276, “LC–MS/MS quantification of bacterial and fungal signal peptides via direct injection: a case study of cross-kingdom communication” (Analytical and Bioanalytical Chemistry, 2025)

Experiment: Peptide stability in fresh culture media (W0, MV, EMM)
Format: physicochemical
Protocol: Stability of the peptides was analyzed in freshly prepared media and in the supernatant from yeast cultivations in W0 and MV media. For this purpose, the yeast cultivations were initiated in 10 mL media with an optical density (OD600nm) of 1 and were cultivated for 24 h at 30 °C with continuous shaking. Subsequently, 2 mL of the culture was sampled and centrifuged at 5000 × g for 5 min. The resulting supernatant was removed and stored at -20 °C until LC–MS analysis. To study the time-dependent peptide stability, yeast supernatant and fresh culture medium with a volume of 900 µL each were spiked with 100 µL of a synthetic peptide mixture containing 10 µM of each α-factor and CSF in HPLC-grade water with 0.125% FA. The samples were analyzed immediately after sampling and subsequently over seven 3h intervals, in order to determine the remaining peptide concentrations. […]
The stability of the peptides also depends on their rate of enzymatic conversation through the action of proteases or peptidases (see review) secreted by cells during the cultivation. Therefore, the concentration of a peptide mixture (containing both α-factor and CSF) was monitored over a period of at least 18 h in the presence of fresh culture media or the supernatant of cultured yeast cells (harvested after 24 h). […]

## TYADFL RAYQSW NTFVNP DRPNL [P-factor, pheromone from S. pombe, obtained from Davids Biotechnologie]
Typical EMM media used for S. pombe, without and with 50 % ACN, LC-MS/MS, Fig. S7
  Peptide stability in EMM media: demonstrated

## WHWLQLKPQPMY [α-factor, signal peptide (pheromone) from S. cerevisiae, ordered from UMEX GmbH]
Fresh W0 pH = 5.6 or MV pH = 6.5, 1 µM peptide, glass vessels, 3 h intervals, LC-MS/MS normalized peak area, Fig. S5
  Concentration over 18 h in fresh culture media: remained nearly constant
